Conditions: Liquid

CCCCn1cc[n+](C)c1.F[B-](F)(F)F [1-butyl-3-methylimidazolium tetrafluoroborate]
mass density [kg/m3]
Conditions	100 kPa	1000 kPa	2000 kPa	3000 kPa	4000 kPa	5000 kPa	10000 kPa
293.15 K	1206.9	1207.3	1207.7	1208.2	1208.7	1209.1	1211.3
303.15 K	1198.6	1199.1	1199.6	1200.1	1200.7	1201.1	1203.5
313.15 K	1190.8	1191.3	1191.8	1192.2	1192.7	1193.2	1195.5
323.15 K	1183	1183.5	1184	1184.5	1185	1185.5	1187.8
333.15 K	1175.8	1176.3	1176.9	1177.4	1177.9	1178.4	1181
343.15 K	1168.4	1168.9	1169.3	1169.8	1170.3	1170.8	1173.1
353.15 K	1161.3	1161.8	1162.4	1163	1163.5	1164.1	1166.6
363.15 K	1154.7	1155.3	1155.8	1156.4	1156.9	1157.5	1160.1
373.15 K	1148.2	1148.8	1149.3	1149.9	1150.4	1151	1153.6
383.15 K	1142	1142.5	1143.1	1143.7	1144.3	1144.8	1147.6
393.15 K	1136.1	1136.7	1137.3	1137.9	1138.4	1139	1141.9

CCCCn1cc[n+](C)c1C.F[P-](F)(F)(F)(F)F [1-butyl-2,3-dimethylimidazolium hexafluorophosphate]
mass density [kg/m3]
Conditions	313.15 K	323.15 K	333.15 K	343.15 K	353.15 K	363.15 K	373.15 K	383.15 K	393.15 K
100 kPa	1339.6	1330.9	1321.9	1313.5	1305.4	1297.6	1290.6	1283.4	1276.1
1000 kPa	1340	1331.4	1322.4	1314.1	1306	1298.2	1291.2	1284	1276.8
2000 kPa	1340.7	1331.9	1323	1314.6	1306.6	1298.8	1291.9	1284.7	1277.4
3000 kPa	1341.2	1332.5	1323.5	1315.2	1307.2	1299.4	1292.5	1285.3	1278.1
4000 kPa	1341.6	1333.1	1324.1	1315.8	1307.8	1300.1	1293.2	1286	1278.8
5000 kPa	1342.1	1333.6	1324.6	1316.3	1308.3	1300.7	1293.8	1286.6	1279.4
10000 kPa	1344.6	1336.2	1327.2	1319.1	1311.1	1303.6	1296.7	1289.7	1282.6

CCCCCCCC[n+]1ccn(C)c1.F[B-](F)(F)F [1-methyl-3-octylimidazolium tetrafluoroborate]
mass density [kg/m3]
Conditions	100 kPa	1000 kPa	2000 kPa	3000 kPa	4000 kPa	5000 kPa	10000 kPa
293.15 K	1108.7	1109.1	1109.6	1110	1110.5	1110.9	1113.1
303.15 K	1100.7	1101.1	1101.6	1102.1	1102.6	1103.1	1105.4
313.15 K	1092.9	1093.4	1093.9	1094.4	1094.9	1095.4	1097.9
323.15 K	1085.4	1085.9	1086.4	1087	1087.5	1088	1090.6
333.15 K	1078.2	1078.7	1079.3	1079.8	1080.3	1080.9	1083.5
343.15 K	1071.4	1072	1072.5	1073.1	1073.7	1074.2	1076.9
353.15 K	1064.7	1065.2	1065.8	1066.4	1067	1067.6	1070.3
363.15 K	1058.6	1059.1	1059.8	1060.4	1061	1061.6	1064.4
373.15 K	1052.4	1053	1053.7	1054.3	1054.9	1055.5	1058.5
383.15 K	1046.6	1047.2	1047.9	1048.5	1049.2	1049.8	1052.9
393.15 K	1040.9	1041.5	1042.1	1042.8	1043.4	1044.1	1047.2

From the NIST ThermoML archive (doi:10.1021/je060247x)
